Measurements taken from paper PMC10245146, “CNS4 causes subtype‐specific changes in agonist efficacy and reversal potential of permeant cations in NMDA receptors” (Pharmacology Research & Perspectives, 2023).

Key:
GluN1/2C NMDA receptors = biological target: T1, GluN1/2C NMDA receptors (UniProt P35439+Q14957); assay: TEVC agonist dose-response, Xenopus oocytes expressing 1/2C; assay type: cell-based
T1 construct: host or cells: Xenopus oocytes (cRNA injection)
Excerpt: NMDA receptor constructs: cDNA encoding the NMDA receptor1a subunit (GluN1a) was obtained from Dr. Nakanishi (Kyoto, Japan). cDNA encoding the GluN2B (pci_sepGluN2B), originally developed in the Malinow lab,[33] was purchased from Addgene (cat# 23998), Cambridge, MA. cDNA encoding the GluN2C and GluN2D were purchased from GenScript, New Jersey, USA. Mutated GluN1, 2A and 2B cDNA constructs capable of assembling as GluN1/2A/2B triheteromeric (1/2AB) receptors[34] were obtained from Dr. Paoletti (Laboratoire de Neurobiologie, CNRS). These constructs have been previously tested for 1/2AB receptor activity of GluN1/2A receptor‐selective potentiators.[35] […] Plasmids were linearized with NotI (GluN1a and all five GluN1 mutants) or Avrll (GluN2B), or BstB1 (GluN2C and GluN2D) and transcribed in vitro with T7 (GluN1a, GluN1/2A, GluN2B, GluN2C & GluN2D), and SP6 (GluN1 mutants) RNA polymerase using the mMessage mMachine transcription kits (Invitrogen by Thermo Fisher Scientific).
Stage IV frog oocytes were obtained from Xenopus‐I, (Ann Arbor, MI, USA). NMDA receptor subunit cRNAs were suspended in nuclease free sterile water. GluN1A, GluN2B, GluN2C, GluN2D and GluN1/2A/2B cRNAs were mixed in a ratio of 1:1–3. 50 nL of the final cRNA mixture was microinjected (40–70 ng total) into the oocyte cytoplasm. Oocytes were incubated in ND‐96 solution at 18°C prior to electrophysiological recordings (2–5 days).
Electrophysiological responses were measured using a standard two‐microelectrode voltage‐clamp workstation (Warner Instruments model OC‐725C) designed to provide a fast clamp of large cells. The recording buffer contained 116 mM NaCl, 2 mM KCl, 0.3 mM BaCl2, and 5 mM HEPES, pH 7.4. Response magnitude was determined in Xenopus oocytes expressing different NMDA receptor subunits (GluN1/2A, 1/2B, 1/2C, 1/2D, and 1/2A/2B) by the steady plateau response elicited by bath application of different agonist concentrations. […] All data points were obtained from the steady state currents unless stated otherwise. Dose–response relationships were fit to an appropriate curve‐fitting equation using GraphPad Prism‐7. Non‐linear regression was used to calculate EC50, IC50, and fold change or percentage maximal response. Curves were fit using the following equations as performed in the previous studies, [37]: Y=100/1+10^LogEC50−XorY=Bottom+Top−Bottom/1+10^LogEC50−X . Statistical significance was determined at the overall alpha level 0.05, using appropriate statistical methods as described in all figure captions. Technical and biological replicates are explicitly mentioned in each figure legend, as n = X (Y). X represents technical repeats (number of traces) and Y represents biological repeats (number of oocytes or HEK293T cells studied). […]

GluN1/2D NMDA receptors = biological target: T2, GluN1/2D NMDA receptors (UniProt O15399+P35439); assay: Current-voltage (I-V) relationship, Xenopus oocytes expressing 1/2D; assay type: cell-based; details: for Difference in reversal potential (∆Erev) between W and WO CNS4: 100 μM CNS4; for Reversal potential (Erev): with 100 μM CNS4
T2 construct: host or cells: Xenopus oocytes (cRNA injection)
T2 sequence (O15399 28-1336, other chains not shown): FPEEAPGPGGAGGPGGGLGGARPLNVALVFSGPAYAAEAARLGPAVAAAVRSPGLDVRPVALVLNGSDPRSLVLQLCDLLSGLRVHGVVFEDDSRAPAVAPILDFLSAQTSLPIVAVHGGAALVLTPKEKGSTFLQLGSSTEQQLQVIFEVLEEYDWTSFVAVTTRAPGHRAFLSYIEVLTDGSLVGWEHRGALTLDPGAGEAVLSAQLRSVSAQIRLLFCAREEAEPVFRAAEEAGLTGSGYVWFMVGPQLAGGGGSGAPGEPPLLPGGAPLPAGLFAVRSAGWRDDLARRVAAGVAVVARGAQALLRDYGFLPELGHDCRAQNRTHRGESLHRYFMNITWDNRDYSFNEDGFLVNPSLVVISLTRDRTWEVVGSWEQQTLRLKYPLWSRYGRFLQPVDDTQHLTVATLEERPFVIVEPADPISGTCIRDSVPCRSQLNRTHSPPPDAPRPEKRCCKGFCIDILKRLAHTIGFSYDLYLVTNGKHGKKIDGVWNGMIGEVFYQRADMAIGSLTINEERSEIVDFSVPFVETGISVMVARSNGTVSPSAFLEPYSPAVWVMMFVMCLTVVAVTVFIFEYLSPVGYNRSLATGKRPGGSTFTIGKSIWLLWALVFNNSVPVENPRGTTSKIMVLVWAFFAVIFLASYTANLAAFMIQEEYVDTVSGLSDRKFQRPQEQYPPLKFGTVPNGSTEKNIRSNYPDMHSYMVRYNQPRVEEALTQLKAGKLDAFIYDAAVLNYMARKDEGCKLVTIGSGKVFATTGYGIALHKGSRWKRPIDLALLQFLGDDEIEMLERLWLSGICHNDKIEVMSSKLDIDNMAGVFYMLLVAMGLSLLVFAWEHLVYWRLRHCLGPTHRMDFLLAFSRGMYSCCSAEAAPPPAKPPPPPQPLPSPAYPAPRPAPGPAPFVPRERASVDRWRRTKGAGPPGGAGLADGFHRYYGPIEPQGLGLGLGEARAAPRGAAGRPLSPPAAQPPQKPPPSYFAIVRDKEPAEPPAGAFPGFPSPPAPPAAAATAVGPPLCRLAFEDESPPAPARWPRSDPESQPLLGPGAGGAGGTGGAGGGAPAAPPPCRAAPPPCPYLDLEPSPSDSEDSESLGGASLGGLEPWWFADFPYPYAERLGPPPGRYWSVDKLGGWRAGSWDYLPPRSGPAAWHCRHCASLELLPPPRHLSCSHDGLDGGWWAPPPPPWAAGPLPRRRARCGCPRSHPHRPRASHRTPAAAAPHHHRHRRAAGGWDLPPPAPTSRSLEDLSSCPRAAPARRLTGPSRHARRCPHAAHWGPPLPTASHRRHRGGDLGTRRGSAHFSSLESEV
Description: There are two sets of recording solutions used for the I‐V assay: solutions with normal (1) and low (2) Ca^2+ concentrations. The normal Ca^2+ solutions contained (mM): 115 NaCl, 1 KCl, 1.8 CaCl2, 10 HEPES. PH was adjusted to 7.2. Low calcium solutions contained 0.018 mM CaCl2 and other components were the same as normal Ca^2+ solution. To study the effects of CNS4 in the absence of extracellular Na^+, NaCl was replaced with impermeable agent, N‐methyl‐D‐glucamine (NMDG, […]). HCl was used to dissolve the NMDG and to adjust the PH to 7.2. NMDG‐containing solutions are termed Nafree. […] There were four different agonist solutions used for each set of Ca^2+ recordings: (1) Agonist, (2) Agonist+CNS4, (3) Agonist in Nafree solution, (4) Agonist+CNS4 in Nafree solution. Each solution was applied to the oocytes in sequential order and the same order was followed for all I‐V recordings. Low Ca^2+ experiments were carried out in the same way as normal Ca^2+ experiments, except that they had 0.018 mM Ca^2+ in all four agonist and recording solutions. Steady state current responses evoked by these solutions at each voltage step were measured. Reversal potentials (Erev) were obtained from x‐intercept values when y = 0 after fitting the I‐V data using a third order polynomial, non‐linear curve fitting equation Y=B0+B1^*X+B2^*X^2+B3^*X^3 . Erev obtained from each oocyte with different agonists were compared in a pairwise manner. These differences were then averaged. Paired or unpaired student t‐test was performed to compare the data as mentioned in each figure legend.
FIGURE 6 Effect on CNS4 on agonist induced current directions in 1/2D receptors. Current –Voltage (I‐V) relationship of 1/2D receptors was studied with normal (A) and low (B) CaCl2 containing extracellular solutions. […] Dark and light green circles indicate normal and low CaCl2 experiments, respectively. (C) Comparison of reversal potentials values. Dark and light red squares indicate equivalent I‐V experiments with NMDG (Nafree). Dotted and thick lines denote the absence (empty circles or squares) and presence (filled circles or squares) of 100 μM CNS4, respectively. Traces (Ai&ii, Bi&ii) represent the current response at −90 mv. N = 4 (4) & n = 7(7) for normal & low Ca^2+ assays respectively. Erev obtained from each oocyte with different agonists were compared in a pairwise manner. Paired student t‐test was performed to compare the data presented at Ci. Unpaired student's t‐test was performed to compare the difference in reversal potentials (triangles). *p < .05.

T1 sequence (Q14957 20-1233, other chains not shown): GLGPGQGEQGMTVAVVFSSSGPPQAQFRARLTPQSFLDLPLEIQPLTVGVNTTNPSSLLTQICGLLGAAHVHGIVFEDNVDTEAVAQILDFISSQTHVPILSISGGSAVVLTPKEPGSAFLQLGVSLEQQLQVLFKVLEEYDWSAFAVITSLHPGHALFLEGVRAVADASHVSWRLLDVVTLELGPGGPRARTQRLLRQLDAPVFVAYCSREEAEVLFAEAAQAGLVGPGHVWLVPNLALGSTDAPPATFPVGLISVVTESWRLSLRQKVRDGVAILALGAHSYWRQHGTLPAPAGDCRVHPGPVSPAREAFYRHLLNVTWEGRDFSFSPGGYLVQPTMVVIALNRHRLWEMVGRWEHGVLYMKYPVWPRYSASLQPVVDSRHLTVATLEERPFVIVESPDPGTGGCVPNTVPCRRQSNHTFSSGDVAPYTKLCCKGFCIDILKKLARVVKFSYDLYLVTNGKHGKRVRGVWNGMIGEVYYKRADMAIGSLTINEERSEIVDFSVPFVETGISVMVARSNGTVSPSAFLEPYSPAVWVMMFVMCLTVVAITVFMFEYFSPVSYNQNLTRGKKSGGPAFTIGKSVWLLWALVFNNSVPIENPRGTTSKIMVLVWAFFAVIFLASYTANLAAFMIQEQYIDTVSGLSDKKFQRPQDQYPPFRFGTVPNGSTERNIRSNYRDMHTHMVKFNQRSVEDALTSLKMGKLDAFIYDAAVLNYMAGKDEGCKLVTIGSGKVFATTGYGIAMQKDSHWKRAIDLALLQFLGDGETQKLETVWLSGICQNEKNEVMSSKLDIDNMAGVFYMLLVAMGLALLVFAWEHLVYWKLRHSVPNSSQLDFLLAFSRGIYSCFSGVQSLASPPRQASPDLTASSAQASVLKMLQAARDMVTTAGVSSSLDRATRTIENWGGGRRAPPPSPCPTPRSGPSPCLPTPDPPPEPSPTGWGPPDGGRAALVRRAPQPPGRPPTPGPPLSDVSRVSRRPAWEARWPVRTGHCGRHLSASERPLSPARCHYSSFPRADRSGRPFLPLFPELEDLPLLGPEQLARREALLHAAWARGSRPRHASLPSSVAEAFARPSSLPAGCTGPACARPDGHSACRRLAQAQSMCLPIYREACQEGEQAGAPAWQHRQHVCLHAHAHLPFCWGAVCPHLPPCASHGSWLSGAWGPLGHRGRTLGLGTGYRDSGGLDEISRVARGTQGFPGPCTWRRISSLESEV

Structure (SMILES): O=C(NC(=S)N1CCCCC1c1cccnc1)c1ccc(F)cc1 (centres unmarked) [CNS4]
- Increase in glycine efficacy with vs without CNS4 (GluN1/2C NMDA receptors; 30 μM CNS4): 1.8 fold
- Reduction in glutamate efficacy with vs without CNS4 (GluN1/2C NMDA receptors; 30 μM CNS4): 2.1 fold
- Glycine efficacy: relative fold change in current at highest glycine concentration (GluN1/2C NMDA receptors; with 30 μM CNS4, 100 μM glutamate constant, relative to 100 nM glycine, p = .0015): 1.77 ± 0.20 fold
- Glutamate efficacy: relative fold change in current at highest glutamate concentration (GluN1/2C NMDA receptors; with 30 μM CNS4, 100 μM glycine constant, relative to 100 nM glutamate, p = .0001): 3.93 ± 0.43 fold
- Difference in reversal potential (∆Erev) between W and WO CNS4 (GluN1/2D NMDA receptors; low Ca2+, Nafree, n = 6): −6.22 ± 4.08 mV
- Difference in reversal potential (∆Erev) between W and WO CNS4 (GluN1/2D NMDA receptors; low Ca2+, with Na+, n = 7): −26.55 ± 7.66 mV
- Difference in reversal potential (∆Erev) between W and WO CNS4 (GluN1/2D NMDA receptors; normal Ca2+, Nafree, n = 4): −2.21 ± 2.14 mV
- Difference in reversal potential (∆Erev) between W and WO CNS4 (GluN1/2D NMDA receptors; normal Ca2+, with Na+, n = 4): −0.22 ± 2.08 mV
- Reversal potential (Erev) (GluN1/2D NMDA receptors; low Ca2+, with Na+, without CNS4 ‐44.02 ± 6.04, p = .013): −70.57 ± 6.44 mV
- Reversal potential (Erev) (GluN1/2D NMDA receptors; normal Ca2+, Nafree, without CNS4 −77.99 ± 1.77, p = .378): −80.20 ± 2.54 mV
- Reversal potential (Erev) (GluN1/2D NMDA receptors; normal Ca2+, with Na+, without CNS4 −61.43 ± 5.26, p = .919): −61.66 ± 5.55 mV
